This is an account of results in PubChem BioAssay (NCI).

Common to all, as to experiment: NCI-60 cell line screen, 48 h
Assay [1] concerns DLD-1 colon.
Assay [2] concerns DMS 114 small cell lung.
The subject of assay [3] is IGROV1 ovarian.
For assay [4], the system named is NCI-H23 lung.
Assay [5] deals with NCI-H460 lung.
Assay [6] has as its system RPMI-8226 leukemia.
Assay [7] concerns SR leukemia.
Assay [8] concerns TK-10 renal.
Assay [9] relates to DU-145 prostate.
Assay [10] relates to HS 578T breast.

“And” between values parts separate entries of the source, which are not always exact repeats. Identical values can stand only once.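 Assay format: 96-well plates, 48-hour exposure. GI50 = concentration required for 50% inhibition of growth. TGI marks complete inhibition of growth.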

For the compound `Cc1ccccc1N=Cc1ccc(N(CCC#N)S(=O)(=O)c2ccccc2)cc1`, the TGI in [1], in assay [2], in [3], in assay [4], in assay [5] and in assay [6] was more than 100 µM in each case. For the same compound, the TGI in assay [7] and in [8] was more than 100 µM throughout.
For the compound `[N-]=[N+]=Nc1ccccc1-[n+]1noc([O-])c1Br`, the TGI in assay [1], in assay [2], in assay [3], in [4], in assay [5] and in assay [6] was more than 100 µM in each case. Moreover, the TGI in assay [7] and in assay [8] was more than 100 µM each time.
Turning to `C[C@]12CCC3[C@@H](C[C@H]4OC(=O)[C@@]35CCC(=O)C=C45)C1CCC2=O` (stereo partly drawn), the TGI in [1], in [2], in [3], in assay [4], in [5] and in [6] was more than 100 µM each time. Further, the TGI in assay [7] and in [8] was more than 100 µM each time.
As to `COC(=O)CCC(=O)CC(=O)C(=O)Nc1ccc(F)cc1`, the TGI in assay [1], in [2], in assay [3], in [4], in assay [5] and in assay [6] was more than 100 µM in each case. In assay [8], this compound showed a TGI of more than 100 µM.
Regarding `COc1ccc(C(=O)C(c2ccc(OC)cc2)C2C(=O)Oc3ccccc32)cc1` (stereo not drawn), the GI50 in assay [1] was more than 100 µM; in assay [2] it was more than 100 µM; in [3], more than 100 µM; in assay [4], more than 100 µM; in [5], more than 100000 nM; in assay [6], more than 100 µM. Besides, the GI50 in [7] and in [8] was more than 100 µM each time. Moreover, the TGI in assay [1], in [2], in assay [3], in assay [4], in assay [5] and in [6] was more than 100 µM in each case. The TGI in [7] and in assay [8] was more than 100 µM each time.
Take `COc1ccc(CN2C(=O)C(Cc3cc(OC)c(OC)c(C)c3OC)N(C(=O)OC(C)C)C(=O)/C2=C/c2cc(OC)c(OC)c(C)c2OC)cc1` (stereo not drawn): the TGI in [1], in assay [2], in assay [3], in assay [4], in assay [5] and in assay [6] was more than 100 µM in each case. Moreover, the TGI in assay [7] was 89.8 µM; in assay [8], more than 100 µM.
In the case of `NC(=O)c1nnn(Cc2cc(Cl)c(C(=O)c3ccc(Cl)cc3)c(Cl)c2)c1N`, the GI50 is 12.7 µM in [1]; 3.36 µM in assay [2]; more than 9.09 µM in assay [3]; more than 9.09 µM in assay [4]; 1040 nM in assay [5]; more than 9.09 µM in [6]. The GI50 was 21.7 µM in [7] and more than 9.09 µM in assay [8]. Moreover, the TGI in [1] is > 9.09 µM and 30.8 µM; in assay [2], > 9.09 µM and 23.3 µM; in assay [9], more than 53.5 µM; in assay [10], more than 64.3 µM; in assay [3] it was > 9.09 µM and 44.2 µM; in [4], > 9.09 µM and 43 µM. Besides, the TGI in [5] is > 9.09 µM and 40.2 µM; in [6], more than 70.6 µM; in assay [7] it was more than 100 µM; in assay [8], > 9.09 µM and 39 µM.
For the compound `COc1c(OC(C)=O)c(OC(C)=O)cc2c1-c1ccc(OC)c(=O)cc1C(NC(C)=O)CC2` (stereo not drawn), the TGI is more than 100 µM in assay [1]; 0.121 µM in assay [2]; more than 100 µM in assay [9]; more than 100 µM in assay [10]; more than 100 µM in assay [3]; 5.24 µM in assay [4]. In addition, the TGI was 13.1 µM in [5], more than 100 µM in assay [6], more than 100 µM in assay [7] and more than 100 µM in assay [8].
In the case of `CN(C)c1ccccc1CC(c1c[nH]c2ccccc12)c1c[nH]c2ccccc12`, the TGI in assay [1] came out at 30.4 µM; in assay [2] it was 20.4 µM; in assay [3], 30.9 µM; in assay [4] it was 21.3 µM; in assay [5], 16 µM; in assay [7] it was 21.6 µM. In assay [8], this compound yielded a TGI of 29.9 µM.
As to `Nc1nc(=O)n(C2CC(O)C(O)C(CO)O2)cc1F` (stereo not drawn), the TGI in [1], in assay [2], in [3], in [4], in [5] and in [6] was more than 100 µM in each case. This compound also had a TGI in assay [8] of more than 100 µM.
`O=C(Nc1ccc(Cl)c(Cl)c1)C(=O)Nn1c(=S)[nH]c2ccccc2c1=O`: the TGI in assay [1], in assay [2], in [3], in assay [4], in [5] and in assay [6] was more than 100 µM throughout. The TGI in [7] and in assay [8] was more than 100 µM throughout.
Take `O=c1oc2c3ccc4ccccc4c3n(CCN3CCOCC3)c2c2ccccc12`: the TGI in assay [1] is more than 100 µM; in [2] it was more than 100 µM; in assay [3] it was more than 100 µM; in assay [5], more than 100 µM; in [6] it was more than 100 µM; in [7], 58.3 µM. This compound also gave a TGI in assay [8] of more than 100 µM.
On to `COc1ccc(NC(=O)CC/C(CC(=O)c2ccccc2Cl)=N\Nc2nnc(C)n2N)cc1`, for which the TGI in [1], in [2], in assay [3], in [4], in [5] and in assay [7] was more than 100 µM throughout. The TGI in [8] is more than 100 µM.
As for `COc1ccc2c(c1)CCc1cnn(C3OC(COC(C)=O)C(OC(C)=O)C(OC(C)=O)C3OC(C)=O)c1-2` (stereo not drawn), the TGI in assay [1] is more than 100 µM; in assay [2] it was more than 100 µM; in assay [4] it was more than 100 µM; in assay [5] it was more than 100 µM; in assay [6], 53.8 µM; in assay [7] it was 70.5 µM. Also, the TGI in assay [8] is more than 100 µM.
`COCC1C(=O)c2cc3c(cc2C12C=CC1(C=C2)OCCO1)OCO3` (stereo not drawn): the TGI came out at 6.5 µM in [1]; 11.6 µM in assay [2]; 29.4 µM in assay [3]; 26.9 µM in assay [4]; 31.9 µM in [5]; 4.1 µM in assay [6]. Further, the TGI in assay [7] was found to be 6.8 µM; in assay [8], 34.9 µM.
Consider `CN(C)c1ccc(/C=C/C(=O)c2ccccc2)cc1Br`, for which the TGI in [1] is 35.6 µM; in [2], 36.9 µM; in assay [3], 48.5 µM; in assay [4], 40 µM; in assay [5], more than 100 µM; in assay [6] it was 44.4 µM. Moreover, the TGI in [8] was 74.2 µM.
As to `COc1ccc(C(=O)/C(=N/Nc2ccccc2)c2ccc(OC)cc2)cc1`, the TGI in assay [1], in assay [2], in assay [3], in assay [4], in assay [5] and in [6] was more than 100 µM in each case. Moreover, the TGI in assay [8] was more than 100 µM.
For the compound `COC(=O)NNc1c([N+](=O)[O-])cnn(-c2ccccc2)c1=O`, the TGI came to 3.91 µM in [1]; 13.8 µM in assay [2]; 16.9 µM in [9]; 6.98 µM in assay [10]; 36.2 µM in assay [3]; 5.82 µM in [4]. Moreover, the TGI in [5] came to 15.9 µM; in assay [6] it was 19.2 µM; in assay [7], 0.981 µM; in assay [8] it was 32.5 µM.
In the case of `Cc1cc2c(cc1C)N1Cc3c(ccc(C)c3C)N(C2)C1` (tested in a mixture with another compound), the TGI in assay [1], in [2], in [3], in assay [4], in assay [5] and in [6] was more than 100 µM throughout. In addition, the TGI in [8] is more than 100 µM.
As to `O=C1C(c2ccc([N+](=O)[O-])cc2)=[N+]([O-])c2ccccc21`, the TGI was more than 100 µM in assay [1]; 27.1 µM in assay [2]; more than 100 µM in assay [3]; 63.4 µM in [4]; more than 100 µM in assay [5]; more than 100 µM in [6]. The TGI was 62.3 µM in [7] and 91.9 µM in assay [8].
On to `O=c1cc2n(c(=O)[nH]1)C1OC(C(O)C1O)[C@H]2CCO` (stereo partly drawn), for which the TGI in assay [1], in [2], in [3], in assay [4], in [5] and in assay [7] was more than 100 µM throughout. This compound gave a TGI in [8] of more than 100 µM.
For the compound `O=c1c2cc(Br)ccc2[nH]c(=S)n1-c1ccc(Br)cc1`, the TGI in assay [1], in assay [2], in assay [3], in assay [4], in assay [5] and in assay [6] was more than 100 µM each time. For the same compound, the TGI in assay [7] and in assay [8] was more than 100 µM in each case.
With `C[N+](C)(C)CCC(=O)N1C/C(=C\c2ccccc2)C(=O)/C(=C/c2ccccc2)C1`, the TGI in [1] is 5.78 µM; in assay [2], more than 22.3 µM; in assay [9], 30.6 µM; in [10], 21.2 µM; in [3], 13.4 µM; in assay [4], 23.3 µM. Besides, the TGI was found to be 22.4 µM in [5], 2.3 µM in [6] and 23.6 µM in [8].
With `O=C(CC1(O)C(=O)Nc2c(Cl)cccc21)c1ccccc1` (stereo not drawn), the TGI in assay [1], in assay [2], in assay [4], in [5], in [6] and in assay [8] was more than 100 µM each time.
